Results published in patent US9765056B2, “Indole and pyrrole compounds, a process for their preparation and pharmaceutical compositions containing them” (LES LABORATOIRES SERVIER, priority 2013, dated 2017).
Structures can show the parent of a compound that is named as a salt.

Tests used:
Bcl-2 protein = Bcl-2 protein (histag-Bcl-2, UniProtKB P10415) (Homo sapiens (Human), UniProt P10415); assay: Inhibition of Bcl-2 by the fluorescence polarisation technique; assay type: binding; settings: fluorescence polarisation test; method A, or method B where underlined (underlining not visible); read-out: IC50 (nM) Bcl-2 FP
Source text: Inhibition of Bcl-2 by the fluorescence polarisation technique

[1] = test system: RS4;11 leukaemia tumour line; assay: In vitro cytotoxicity, Microculture Tetrazolium Assay (MTT); assay type: cell-based; settings: Homo sapiens; RS4;11 cells, 48 hours exposure
Method: The cytotoxicity studies were carried out on the RS4;11 leukaemia tumour line.
The cells are distributed onto microplates and exposed to the test compounds for 48 hours. The cell viability is then quantified by a colorimetric assay, the Microculture Tetrazolium Assay (Cancer Res., 1987, 47, 939-942).

Chain of Bcl-2 protein (P10415 whole entry): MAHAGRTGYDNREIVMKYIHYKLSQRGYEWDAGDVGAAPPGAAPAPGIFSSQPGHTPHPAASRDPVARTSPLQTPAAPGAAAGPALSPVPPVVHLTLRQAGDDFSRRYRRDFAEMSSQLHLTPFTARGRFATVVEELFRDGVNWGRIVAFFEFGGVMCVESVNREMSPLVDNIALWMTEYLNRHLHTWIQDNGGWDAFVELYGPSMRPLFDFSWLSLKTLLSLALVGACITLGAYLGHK

| Structure (SMILES) | IC50 (Bcl-2 protein) | IC50 [1] |
| --- | --- | --- |
| O=C(c1cn(-c2cc3c(cc2C(=O)N2Cc4ccccc4C[C@H]2CN2CCOCC2)OCO3)c2c1CCCC2)N(c1ccccc1)c1ccc(O)cc1 [Example 113, N-(4-Hydroxyphenyl)-1-(6-{[(3S)-3-(morpholin-4-ylmethyl)-3,4-dihydroisoquinolin-2(1H)-yl]carbonyl}-1,3-benzodioxol-5-yl)-N-phenyl-4,5,6,7-tetrahydro-1H-indole-3-carboxamide hydrochloride] | 19.2 nM | 203 nM |
| CCCCN(CCCC)C(=O)c1cn(-c2ccc(NC(=O)COc3ccccc3)cc2C(=O)N2Cc3ccccc3C[C@H]2CN2CCN(C)CC2)c2ccccc12 [Example 200, N,N-Dibutyl-1-{2-[(3S)-3-[(4-methylpiperazin-1-yl)methyl]-1,2,3,4-tetrahydroisoquinoline-2-carbonyl]-4-(2-phenoxyacetamido)phenyl}-1H-indole-3-carboxamide] | 155 nM | 2080 nM |
| Cc1cc(C(=O)N(c2ccccc2)c2ccc(O)cc2)cn1-c1cc2c(cc1C(=O)N1Cc3ccccc3C[C@H]1CCN1CCOCC1)OCO2 [Example 120, N-(4-Hydroxyphenyl)-5-methyl-1-(6-{[(3S)-3-[2-(morpholin-4-yl)ethyl]-3,4-dihydroisoquinolin-2(1H)-yl]carbonyl}-1,3-benzodioxol-5-yl)-N-phenyl-1H-pyrrole-3-carboxamide hydrochloride] | 15 nM | 367 nM |
| CN1CCN(C[C@@H]2Cc3ccccc3CN2C(=O)c2ccc(Cl)cc2-n2cc(C(=O)N(c3ccc(O)cc3)c3ccc4c(ccn4C)c3)c3ccccc32)CC1 [Example 93, 1-(5-Chloro-2-{[(3S)-3-[(4-methylpiperazin-1-yl)methyl]-3,4-dihydroisoquinolin-2(1H)-yl]carbonyl}phenyl)-N-(4-hydroxyphenyl)-N-(1-methyl-1H-indol-5-yl)-1H-indole-3-carboxamide] | 3.3 nM | 75.4 nM |
| Cc1cc(C(=O)N(c2ccc(O)cc2)c2ccc3c(ccn3C)c2)cn1-c1cc2c(cc1C(=O)N1Cc3ccccc3C[C@H]1CN1CCOCC1)CCC2 [Example 117, N-(4-Hydroxyphenyl)-5-methyl-N-(1-methyl-1H-indol-5-yl)-1-(6-{[(3S)-3-(morpholin-4-ylmethyl)-3,4-dihydroisoquinolin-2(1H)-yl]carbonyl}-2,3-dihydro-1H-inden-5-yl)-1H-pyrrole-3-carboxamide hydrochloride] | 7.6 nM | 193 nM |
| CN1CCN(C[C@@H]2Cc3ccccc3CN2C(=O)c2cc3c(cc2-n2cc(C(=O)N(c4ccccc4)c4ccc(O)cc4)c4ccccc42)OC[C@H](COCc2ccccc2)O3)CC1 [Example 188, 1-[(2S)-2-[(Benzyloxy)methyl]-7-[(3S)-3-[(4-methylpiperazin-1-yl)-methyl]-1,2,3,4-tetrahydroisoquinoline-2-carbonyl]-2,3-dihydro-1,4-benzodioxin-6-yl]-N-(4-hydroxyphenyl)-N-phenyl-1H-indole-3-carboxamide] | 16.8 nM | 68 nM |
| Cc1cc(C(=O)N(c2ccc(O)cc2)c2ccc3c(ccn3C)c2)cn1-c1cc(Cl)c(F)cc1C(=O)N1Cc2ccccc2C[C@H]1CN1CCN(C)CC1 [Example 77, 1-(5-Chloro-4-fluoro-2-{[(3S)-3-[(4-methylpiperazin-1-yl)methyl]-3,4-dihydroisoquinolin-2(1H)-yl]carbonyl}phenyl)-N-(4-hydroxyphenyl)-5-methyl-N-(1-methyl-1H-indol-5-yl)-1H-pyrrole-3-carboxamide hydrochloride] | 4.9 nM | 207 nM |
| Cc1cc(C(=O)N(c2ccccc2)c2ccc(O)cc2)cn1-c1cc2c(cc1C(=O)N1Cc3ccccc3C[C@H]1CN1CCOCC1)CCC2 [Example 107, N-(4-Hydroxyphenyl)-5-methyl-1-(6-{[(3S)-3-(morpholin-4-ylmethyl)-3,4-dihydroisoquinolin-2(1H)-yl]carbonyl}-2,3-dihydro-1H-inden-5-yl)-N-phenyl-1H-pyrrole-3-carboxamide hydrochloride] | 44 nM | 150 nM |
